Data taken from a polymer gas permeability compilation.

| CH4 permeability [Barrer] | CO2 permeability [Barrer] | H2 permeability [Barrer] | N2 permeability [Barrer] | O2 permeability [Barrer] | SMILES |
| --- | --- | --- | --- | --- | --- |
| 10100 | 16900 | 10800 | 4100 | 5700 | *C(=C(*)c1ccc2c(c1)C(C)(C)CC2(C)C)c1ccc(C)cc1 (repeat unit) |
| 22700 | 35200 | 20600 | 9200 | 11700 | *C(=C(*)c1ccc2c(c1)C(C)(C)CC2(C)C)c1ccc(Cl)cc1 (repeat unit) |
| 35000 | 44200 | 36800 | 16600 | 18700 | *C(=C(*)c1ccc2c(c1)C(C)(C)CC2(C)C)c1ccc(F)c(F)c1 (repeat unit) |
| 27800 | 35200 | 27000 | 12000 | 14300 | *C(=C(*)c1ccc2c(c1)C(C)(C)CC2(C)C)c1cccc(F)c1 (repeat unit) |
| 3000 | 8000 | 3700 | 1100 | 2000 | *C(=C(*)c1ccc2c(c1)C(C)(C)c1cc(Br)ccc1-2)c1ccccc1 (repeat unit) |
| 180 | 3000 | 2490 | 141 | 583 | *c1c(C)cc(-c2cc(C)c(-n3c(=O)c4cc5oc6cc7c(cc6oc5cc4c3=O)C3(C)CCC7(C)c4cc5oc6cc7c(=O)n(*)c(=O)c7cc6oc5cc43)c3ccccc23)c2ccccc12 (repeat unit) |
| 359 | 4030 | 1620 | 212 | 640 | *c1c(C)cc(-c2cc(C)c(N3C(=O)c4cc5c(cc4C3=O)C3(CC(C)(C)c4cc6c(cc43)C(=O)N(*)C6=O)CC5(C)C)c3ccccc23)c2ccccc12 (repeat unit) |
| 1.21 | 39 | 58 | 1.33 | 6.6 | *c1c(C)cc(-c2cc(C)c(N3C(=O)c4cc5c(cc4C3=O)S(=O)(=O)c3cc4c(cc3S5(=O)=O)C(=O)N(*)C4=O)c(C)c2)cc1C (repeat unit) |
| 5.6 | 95 | 150 | 4.9 | 22 | *c1c(C)cc(-c2cc(C)c(N3C(=O)c4ccc(Oc5cc(C(C)(C)C)c(Oc6ccc7c(c6)C(=O)N(*)C7=O)cc5C(C)(C)C)cc4C3=O)c(C)c2)cc1C (repeat unit) |
| 1.2 | 39 | 55 | 1.2 | 6.5 | *c1c(C)cc(-c2cc(C)c(N3C(=O)c4ccc(Oc5cc(C)c(Oc6ccc7c(c6)C(=O)N(*)C7=O)c(C)c5C)cc4C3=O)c(C)c2)cc1C (repeat unit) |
| 8 | 182 | 210 | 7.5 | 32 | *c1c(C)cc(C)c(N2C(=O)c3ccc(-c4ccc5c(c4)C(=O)N(*)C5=O)cc3C2=O)c1C (repeat unit) |
| 20.4 | 422 | 435 | 24.3 | 87.7 | *c1c(C)cc(C)c(N2C(=O)c3ccc(C(c4ccc5c(c4)C(=O)N(*)C5=O)(C(F)(F)F)C(F)(F)F)cc3C2=O)c1C (repeat unit) |
| 8.21 | 97.6 | – | 7.08 | 27.4 | *c1c(C)cc(Cc2cc(C)c(-n3c(=O)c4cc5c(=O)n(*)c(=O)c5cc4c3=O)c(C)c2)cc1C (repeat unit) |
| 238 | 3360 | 2380 | 180 | 680 | *c1c(C)cc2c(c1C)C1c3ccccc3C2c2cc(C)c(-n3c(=O)c4cc5c(=O)n(*)c(=O)c5cc4c3=O)c(C)c21 (repeat unit) |
| 395 | 5010 | 4140 | 306 | 1150 | *c1c(C)cc2c(c1C)C1c3ccccc3C2c2cc(C)c(-n3c(=O)c4cc5oc6cc7c(cc6oc5cc4c3=O)C3(C(C)C)c4ccccc4C7(C(C)C)c4cc5oc6cc7c(=O)n(*)c(=O)c7cc6oc5cc43)c(C)c21 (repeat unit) |
| 121 | 1730 | 1400 | 113 | 374 | *c1c(C)cc2c(c1C)C1c3ccccc3C2c2cc(C)c(N3C(=O)c4ccc(C(c5ccc6c(c5)C(=O)N(*)C6=O)(C(F)(F)F)C(F)(F)F)cc4C3=O)c(C)c21 (repeat unit) |
| 0.05 | 1.91 | 10.7 | 0.06 | 0.42 | *c1cc(-c2nc3cc(-c4ccc5[nH]c(*)nc5c4)ccc3[nH]2)cc(C(C)(C)C)c1 (repeat unit) |

| CH4 permeability [Barrer] | CO2 permeability [Barrer] | H2 permeability [Barrer] | N2 permeability [Barrer] | O2 permeability [Barrer] | SMILES |
| --- | --- | --- | --- | --- | --- |
| 4.19 | 75 | – | 4.49 | 19.7 | *c1cc(C(=O)OCCC(F)(F)C(F)(F)C(F)(F)C(F)(F)C(F)(F)C(F)(F)F)cc(N2C(=O)c3ccc(C(=O)c4ccc5c(c4)C(=O)N(*)C5=O)cc3C2=O)c1 (repeat unit) |
| 0.44 | 17.8 | – | 0.74 | 4.74 | *c1cc(C(=O)OCCC(F)(F)C(F)(F)C(F)(F)C(F)(F)C(F)(F)C(F)(F)F)cc(N2C(=O)c3ccc(C(c4ccc5c(c4)C(=O)N(*)C5=O)(C(F)(F)F)C(F)(F)F)cc3C2=O)c1 (repeat unit) |
| 0.36 | 11 | – | 0.56 | 2.61 | *c1cc(C(=O)OCCC(F)(F)C(F)(F)C(F)(F)C(F)(F)C(F)(F)C(F)(F)F)cc(N2C(=O)c3ccc(Oc4ccc5c(c4)C(=O)N(*)C5=O)cc3C2=O)c1 (repeat unit) |
| 9 | 210 | 220 | 9 | 39 | *c1cc(C(c2ccc(C)c(-n3c(=O)c4cc5oc6cc7c(cc6oc5cc4c3=O)C3(CC(C)(C)c4cc5oc6cc8c(=O)n(*)c(=O)c8cc6oc5cc43)CC7(C)C)c2)(C(F)(F)F)C(F)(F)F)ccc1C (repeat unit) |
| 4 | 110 | 130 | 3.8 | 18 | *c1cc(C)c(C)c(N2C(=O)c3ccc(Oc4cc(C)c(Oc5ccc6c(c5)C(=O)N(*)C6=O)c(C)c4C)cc3C2=O)c1C (repeat unit) |
| 0.195 | 7.73 | 28.2 | 0.499 | 3.29 | *c1cc(C)c2c(c1)S(=O)(=O)c1cc(N3C(=O)c4ccc(-c5ccc6c(c5)C(=O)N(*)C6=O)cc4C3=O)cc(C)c1-2 (repeat unit) |
| 7.27 | – | 1100 | 7.09 | 61 | *c1cc2c(cc1*)C1(C(C)C)c3ccccc3C2(C(C)C)c2cc3c(cc21)Oc1cc2nc(*)c(*)nc2cc1O3 (repeat unit) |
| 1.74 | 73.5 | 156 | 3.27 | 16.5 | *c1cc2c(cc1C)-c1cc(C)c(N3C(=O)c4ccc(C(c5ccc6c(c5)C(=O)N(*)C6=O)(C(F)(F)F)C(F)(F)F)cc4C3=O)cc1S2(=O)=O (repeat unit) |
| 0.244 | 14.1 | 45.4 | 0.37 | 3.29 | *c1cc2c(cc1C)-c1cc(C)c(N3C(=O)c4ccc(S(=O)(=O)c5ccc6c(c5)C(=O)N(*)C6=O)cc4C3=O)cc1S2(=O)=O (repeat unit) |
| 4.9 | 138 | 274 | 5.3 | 31.2 | *c1cc2c(cc1O)C1(CC2(C)C)CC(C)(C)c2cc(N3C(=O)C4C(C3=O)C3(Br)C(Br)=C(Br)C4(Br)C4C(=O)N(*)C(=O)C43)c(O)cc21 (repeat unit) |
| 13 | 220 | 126 | 9 | 32 | *c1ccc(-c2ccc(-c3ccc(C(*)(c4ccccc4)C(F)(F)F)cc3)cc2)cc1 (repeat unit) |
| 34 | 470 | 470 | 41 | 120 | *c1ccc(-c2ccc(C(*)(C(F)(F)F)C(F)(F)F)cc2)cc1 (repeat unit) |
| 0.16 | 6.7 | 22 | 0.21 | 1.4 | *c1ccc(-c2ccc(N3C(=O)c4ccc(Oc5cc(C(C)(C)C)ccc5Oc5ccc6c(c5)C(=O)N(*)C6=O)cc4C3=O)c(OC)c2)cc1OC (repeat unit) |
| 0.79 | 39.6 | – | 1.2 | 7.62 | *c1ccc(-c2ccc(Oc3ccc(C4(c5ccc(Oc6ccc(-c7ccc(-n8c(=O)c9cc%10c(=O)n(*)c(=O)c%10cc9c8=O)cc7)cc6C(F)(F)F)cc5)c5ccccc5C(=O)N4c4ccccc4)cc3)c(C(F)(F)F)c2)cc1 (repeat unit) |
| 0.62 | 17.1 | – | 0.83 | 4.33 | *c1ccc(-c2ccc(Oc3ccc(C4(c5ccc(Oc6ccc(-c7ccc(N8C(=O)c9ccc(C(=O)c%10ccc%11c(c%10)C(=O)N(*)C%11=O)cc9C8=O)cc7)cc6C(F)(F)F)cc5)c5ccccc5C(=O)N4c4ccccc4)cc3)c(C(F)(F)F)c2)cc1 (repeat unit) |
| 0.84 | 14.6 | – | 0.96 | 4.22 | *c1ccc(-c2ccc(Oc3ccc(C4(c5ccc(Oc6ccc(-c7ccc(N8C(=O)c9ccc(Oc%10ccc%11c(c%10)C(=O)N(*)C%11=O)cc9C8=O)cc7)cc6C(F)(F)F)cc5)c5ccccc5C(=O)N4c4ccccc4)cc3)c(C(F)(F)F)c2)cc1 (repeat unit) |

| SMILES | CH4 permeability [Barrer] | CO2 permeability [Barrer] | H2 permeability [Barrer] | N2 permeability [Barrer] | O2 permeability [Barrer] |
| --- | --- | --- | --- | --- | --- |
| *c1ccc(*)n1C (repeat unit) | 0.22 | 6.9 | – | 0.33 | 2.04 |
